Test results from patent US8148391B2 (Cephalon, Inc., priority 2006, dated 2012).
pIC50: −log10 of the molar value.

Each compound was assayed against T1, c-Met (cytoplasmic domain) (Homo sapiens, UniProt P08581) (assay: c-Met Kinase Assay (same methods as for ALK, with modifications)). Conditions: 1 μM ATP (Km level), 10 ng/mL c-Met; read-out: cMet Activity (c-Met kinase inhibition, IC50 class).
T1 construct: 10 ng/mL c-Met (cytoplasmic domain, Invitrogen Corporation #PV3143); purchased Invitrogen Corporation PV3143
T1 sequence (P08581 956-1390 limits assumed): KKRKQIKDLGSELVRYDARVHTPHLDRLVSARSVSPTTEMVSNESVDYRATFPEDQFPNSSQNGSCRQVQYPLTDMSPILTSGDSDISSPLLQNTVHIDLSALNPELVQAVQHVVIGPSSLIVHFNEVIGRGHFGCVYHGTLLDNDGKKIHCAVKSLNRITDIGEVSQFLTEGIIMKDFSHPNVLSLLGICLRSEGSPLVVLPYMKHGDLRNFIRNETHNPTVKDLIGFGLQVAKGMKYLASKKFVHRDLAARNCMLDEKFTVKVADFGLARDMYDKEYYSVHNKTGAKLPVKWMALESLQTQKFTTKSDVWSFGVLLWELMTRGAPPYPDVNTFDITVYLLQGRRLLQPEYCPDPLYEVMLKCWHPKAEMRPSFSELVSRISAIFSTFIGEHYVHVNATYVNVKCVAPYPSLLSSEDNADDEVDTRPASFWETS
Format: biochemical
Method: (§1) Briefly, each 96-well plate was coated with 100 μL/well of 10 μg/mL substrate (phospholipase C-γ) in Tris-buffered saline (TBS). […] The reaction was initiated by adding enzyme (30 ng/ml ALK) and was allowed to proceed at 37° C. for 15 minutes. Detection of the phosphorylated product was performed by adding 100 μl/well of Eu-N1 labeled PT66 antibody (Perkin Elmer # AD0041).
(§2) Data analysis was performed using ActivityBase (IDBS, Guilford, UK). IC50 values were calculated by plotting percent inhibition versus log10 of the concentration of compound and fitting to the nonlinear regression sigmoidal dose-response (variable slope) equation in XLFit (IDBS, Guilford, UK).
Reactions were initiated with 10 ng/mL c-Met (cytoplasmic domain, Invitrogen Corporation #PV3143).
`COc1cc2c(cc1Nc1ncc(Cl)c(Nc3ccc(C#N)cc3OC)n1)CCN(CC(=O)N(C)C)CC2` [Example 1163, 2-{7-[5-Chloro-4-(4-cyano-2-methoxy-phenylamino)-pyrimidin-2-ylamino]-8-methoxy-1,2,4,5-tetrahydro-benzo[d]azepin-3-yl}-N,N-dimethyl-acetamide] was tested, and the pIC50 was under 5.00. `CNC(=O)CN1CCc2cc(Nc3ncc(Cl)c(Nc4ccc(N5CCOCC5)cc4OC)n3)c(OC)cc2CC1` [Example 1113, 2-{7-[5-Chloro-4-(2-methoxy-4-morpholin-4-yl-phenylamino)-pyrimidin-2-ylamino]-8-methoxy-1,2,4,5-tetrahydro-benzo[d]azepin-3-yl}-N-methyl-acetamide] showed a pIC50 of under 5.00. Work on `COc1cc2c(cc1Nc1ncc(Cl)c(Nc3ccccc3OC)n1)CCN(CC(=O)N(C)C)CC2` [Example 1130, 2-{7-[5-Chloro-4-(2-methoxy-phenylamino)-pyrimidin-2-ylamino]-8-methoxy-1,2,4,5-tetrahydro-benzo[d]azepin-3-yl}-N,N-dimethyl-acetamide] yielded a pIC50 of under 5.00. In the case of `COCCOc1ccc(Nc2nc(Nc3cc4c(cc3OC)CCN(CC(=O)N(C)C)CC4)ncc2Cl)c(OC)c1` [Example 1169, 2-(7-{5-Chloro-4-[2-methoxy-4-(2-methoxy-ethoxy)-phenylamino]-pyrimidin-2-ylamino}-8-methoxy-1,2,4,5-tetrahydro-benzo[d]azepin-3-yl)-N,N-dimethyl-acetamide], the pIC50 was under 5.00. Compound `COc1cc2c(cc1Nc1ncc(Cl)c(Nc3ccc(N4CCOCC4)cc3)n1)CCN(CC(=O)N(C)C)CC2` [Example 1150, 2-{7-[5-Chloro-4-(4-morpholin-4-yl-phenylamino)-pyrimidin-2-ylamino]-8-methoxy-1,2,4,5-tetrahydro-benzo[d]azepin-3-yl}-N,N-dimethyl-acetamide] has a pIC50 of under 5.00. `COc1cc2c(cc1Nc1ncc(Cl)c(Nc3ccc(N4CCOCC4)cc3OC)n1)CCN(CCS(C)(=O)=O)CC2` [Example 1120, 5-Chloro-N*2*-[3-(2-methanesulfonyl-ethyl)-8-methoxy-2,3,4,5-tetrahydro-1H-benzo[d]azepin-7-yl]-N*4*-(2-methoxy-4-morpholin-4-yl-phenyl)-pyrimidine-2,4-diamine] gave a pIC50 of under 5.00. `COc1cc2c(cc1Nc1ncc(Cl)c(Nc3ccc(C(N)=O)cc3OC)n1)CCN(CC(=O)N(C)C)CC2` [Example 1146, 4-[5-Chloro-2-(3-dimethylcarbamoylmethyl-8-methoxy-2,3,4,5-tetrahydro-1H-benzo[d]azepin-7-ylamino)-pyrimidin-4-ylamino]-3-methoxy-benzamide] gave a pIC50 of under 5.00.

Same assay, conditions: 1 μM ATP (Km level); read-out: cMet Activity (c-Met Kinase Inhibition, IC50)
Work on `COc1cc2c(cc1Nc1ncc(Cl)c(Nc3ccc(N4CCOCC4)cc3OC)n1)CCN(CC(F)F)CC2` [Example 761, 5-Chloro-N*2*-[3-(2,2-difluoro-ethyl)-8-methoxy-2,3,4,5-tetrahydro-1H-benzo[d]azepin-7-yl]-N*4*-(2-methoxy-4-morpholin-4-yl-phenyl)-pyrimidine-2,4-diamine] yielded a pIC50 of under 5.00. `COc1ccc(Nc2nc(Nc3cc4c(cc3OC)CCN(CC(=O)N(C)C)CC4)ncc2Cl)c(OC)c1` [Example 812, 2-{7-[5-Chloro-4-(2,4-dimethoxy-phenylamino)-pyrimidin-2-ylamino]-8-methoxy-1,2,4,5-tetrahydro-benzo[d]azepin-3-yl}-N,N-dimethyl-acetamide] was tested, and the pIC50 was under 5.00.

Same assay, conditions: c-Met kinase inhibition, 1 μM ATP (Km level); read-out: cMet Activity
Compound `CCN1C(=O)CCCc2c1ccc(Nc1ncc(Cl)c(Nc3ccc(N4CCOCC4)cc3OC)n1)c2OC` [Example 119, 7-[5-Chloro-4-(2-methoxy-4-morpholin-4-yl-phenylamino)-pyrimidin-2-ylamino]-1-ethyl-6-methoxy-1,3,4,5-tetrahydro-benzo[b]azepin-2-one] has a pIC50 of under 5.00. Work on `COCCN1CCc2cc(Nc3ncc(Cl)c(Nc4ccc(N5CCOCC5)cc4OC)n3)c(OC)cc2CC1` [Example 113, 5-Chloro-N*2*-[8-methoxy-3-(2-methoxy-ethyl)-2,3,4,5-tetrahydro-1H-benzo[d]azepin-7-yl]-N*4*-(2-methoxy-4-morpholin-4-yl-phenyl)-pyrimidine-2,4-diamine] yielded a pIC50 of under 5.00.

Same assay, conditions: c-Met kinase inhibition, 1 μM ATP; read-out: cMet Activity
Compound `COCCOc1cccc(F)c1Nc1nc(Nc2ccc3c(c2)CCN(CCOC)CC3)ncc1Cl` [Example 1696, 5-Chloro-N*4*-[2-fluoro-6-(2-methoxy-ethoxy)-phenyl]-N*2*-[3-(2-methoxy-ethyl)-2,3,4,5-tetrahydro-1H-benzo[d]azepin-7-yl]-pyrimidine-2,4-diamine] has a pIC50 of 6.00 to 7.00.

Same assay, conditions: cMet Activity, c-Met kinase inhibition, 1 μM ATP (Km level)
In the case of `COc1cc2c(cc1Nc1ncc(Cl)c(Nc3ccc(N4CCOCC4)cc3OC)n1)CCN(CC(=O)N(C)C)CC2` [Example 261, 2-{7-[5-Chloro-4-(2-methoxy-4-morpholin-4-yl-phenylamino)-pyrimidin-2-ylamino]-8-methoxy-1,2,4,5-tetrahydro-benzo[d]azepin-3-yl}-N,N-dimethyl-acetamide], the pIC50 was under 5.00.

What follows are compounds tested against T2, baculovirus-expressed ALK (Homo sapiens, UniProt Q9UM73) (assay: ALK Kinase Assay (ELISA-type, time-resolved fluorescence)). Conditions: 1 μM ATP (Km level), 30 ng/ml ALK, 37° C., 15 minutes; read-out: ALK Activity (ALK kinase inhibition, IC50 class).
T2 construct: host or cells: baculovirus expression system
T2 sequence (Q9UM73 19-1620): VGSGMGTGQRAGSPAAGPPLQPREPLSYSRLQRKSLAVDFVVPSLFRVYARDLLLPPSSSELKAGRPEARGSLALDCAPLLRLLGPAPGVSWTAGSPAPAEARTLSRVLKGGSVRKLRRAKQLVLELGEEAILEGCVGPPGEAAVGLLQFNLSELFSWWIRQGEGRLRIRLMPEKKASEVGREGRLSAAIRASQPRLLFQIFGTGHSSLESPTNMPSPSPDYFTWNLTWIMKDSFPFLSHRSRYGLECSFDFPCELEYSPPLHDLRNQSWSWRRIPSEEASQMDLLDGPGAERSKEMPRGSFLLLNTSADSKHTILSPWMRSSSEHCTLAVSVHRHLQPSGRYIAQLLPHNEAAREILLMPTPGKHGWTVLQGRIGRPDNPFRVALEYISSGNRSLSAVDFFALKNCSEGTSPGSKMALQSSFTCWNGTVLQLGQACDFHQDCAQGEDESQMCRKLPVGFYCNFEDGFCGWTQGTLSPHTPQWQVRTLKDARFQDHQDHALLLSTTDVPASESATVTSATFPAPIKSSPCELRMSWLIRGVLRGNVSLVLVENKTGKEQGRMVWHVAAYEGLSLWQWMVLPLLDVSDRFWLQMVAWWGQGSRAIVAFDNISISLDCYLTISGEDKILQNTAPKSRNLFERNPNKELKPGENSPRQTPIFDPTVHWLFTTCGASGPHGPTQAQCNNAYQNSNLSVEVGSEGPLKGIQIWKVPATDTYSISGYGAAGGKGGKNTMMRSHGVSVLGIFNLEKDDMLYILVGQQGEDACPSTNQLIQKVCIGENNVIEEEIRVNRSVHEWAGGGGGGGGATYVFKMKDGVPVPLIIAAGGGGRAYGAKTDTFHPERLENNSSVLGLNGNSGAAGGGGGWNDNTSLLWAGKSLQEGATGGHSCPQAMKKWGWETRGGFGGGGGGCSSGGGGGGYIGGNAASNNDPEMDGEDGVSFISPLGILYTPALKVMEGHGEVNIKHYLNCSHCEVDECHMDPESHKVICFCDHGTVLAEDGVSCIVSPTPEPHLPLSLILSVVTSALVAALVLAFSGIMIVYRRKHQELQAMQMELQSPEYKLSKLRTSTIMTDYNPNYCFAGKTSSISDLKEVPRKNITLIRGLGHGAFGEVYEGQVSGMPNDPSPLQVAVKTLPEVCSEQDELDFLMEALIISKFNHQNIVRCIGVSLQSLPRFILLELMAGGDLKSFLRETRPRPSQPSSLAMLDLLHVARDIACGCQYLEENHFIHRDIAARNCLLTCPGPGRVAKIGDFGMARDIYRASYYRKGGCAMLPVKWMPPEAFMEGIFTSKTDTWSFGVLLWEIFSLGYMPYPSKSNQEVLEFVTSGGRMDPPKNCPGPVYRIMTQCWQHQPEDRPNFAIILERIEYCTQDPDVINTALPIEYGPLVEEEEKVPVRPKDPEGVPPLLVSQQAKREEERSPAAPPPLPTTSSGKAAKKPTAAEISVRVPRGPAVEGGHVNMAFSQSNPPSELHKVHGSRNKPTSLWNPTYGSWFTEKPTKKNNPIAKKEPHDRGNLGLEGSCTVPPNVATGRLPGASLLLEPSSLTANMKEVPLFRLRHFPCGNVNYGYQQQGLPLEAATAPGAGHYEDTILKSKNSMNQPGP
Format: biochemical
Method: as §1, §2
`CNC(=O)c1cccc(F)c1Nc1nc(Nc2ccc3c(c2)NC(=O)C(NC(=O)COC)CC3(C)C)ncc1Cl` (centres unmarked) [Example 1292, 2-{5-Chloro-2-[3-(2-methoxy-acetylamino)-5,5-dimethyl-2-oxo-2,3,4,5-tetrahydro-1H-1-benzazepin-8-ylamino]-pyrimidin-4-ylamino}-3-fluoro-N-methyl-benzamide] showed a pIC50 of 6.00 to 7.00. With `CNC(=O)c1cccc(F)c1Nc1nc(Nc2ccc3c(c2)OCCCN3C(=O)OC(C)C)ncc1Cl` [Example 1432, 3-[5-Chloro-4-(2-fluoro-6-methylcarbamoyl-phenylamino)-pyrimidin-2-ylamino]-7,8-dihydro-6H-5-oxa-9-aza-benzocycloheptene-9-carboxylic acid isopropyl ester] the pIC50 was 6.00 to 7.00.

Same assay, conditions: ALK kinase inhibition, 1 μM ATP (Km level); read-out: ALK Activity
`CN1C(=O)CCCc2cc(Nc3ncc(Cl)c(Nc4ccccc4C(N)=O)n3)ccc21` [Example 7, 2-[5-Chloro-2-(1-methyl-2-oxo-2,3,4,5-tetrahydro-1H-benzo[b]azepin-7-ylamino)-pyrimidin-4-ylamino]-benzamide] was tested, and the pIC50 was over 7.00. `CNC(=O)c1cccc(Cl)c1Nc1nc(Nc2ccc3c(c2)C(C)(C)CCC(=O)N3)ncc1Cl` [Example 382, 3-Chloro-2-[5-chloro-2-(5,5-dimethyl-2-oxo-2,3,4,5-tetrahydro-1H-benzo[b]azepin-7-ylamino)-pyrimidin-4-ylamino]-N-methyl-benzamide] showed a pIC50 of 6.00 to 7.00. With `CNC(=O)c1cccc(Cl)c1Nc1nc(Nc2ccc3c(c2)CCN(CCOC)CC3)ncc1Cl` [Example 312, 3-Chloro-2-{5-chloro-2-[3-(2-methoxy-ethyl)-2,3,4,5-tetrahydro-1H-benzo[d]azepin-7-ylamino]-pyrimidine-4-ylamino}-N-methyl-benzamide] the pIC50 was 6.00 to 7.00. Work on `CNC(=O)c1cccc(F)c1Nc1nc(Nc2ccc3c(c2)CCN(CCOC)CC3)ncc1Cl` [Example 311, 2-{5-Chloro-2-[3-(2-methoxy-ethyl)-2,3,4,5-tetrahydro-1H-benzo[d]azepin-7-ylamino]-pyrimidine-4-ylamino}-3-fluoro-N-methyl-benzamide] yielded a pIC50 of over 7.00. `CNC(=O)c1cccc(C)c1Nc1nc(Nc2ccc3c(c2)C(C)(C)CCC(=O)N3)ncc1Cl` [Example 399, 2-[5-Chloro-2-(5,5-dimethyl-2-oxo-2,3,4,5-tetrahydro-1H-benzo[b]azepin-7-ylamino)-pyrimidin-4-ylamino]-3,N-dimethyl-benzamide] was tested, and the pIC50 was 6.00 to 7.00. `CNC(=O)c1cccc(F)c1Nc1nc(Nc2ccc3c(c2)N(CCOC)C(=O)CCC3)ncc1Cl` [Example 362, 2-{5-Chloro-2-[1-(2-methoxy-ethyl)-2-oxo-2,3,4,5-tetrahydro-1H-benzo[b]azepin-8-ylamino]-pyrimidin-4-ylamino}-3-fluoro-N-methyl-benzamide] gave a pIC50 of over 7.00. For `CNC(=O)c1ccccc1Nc1nc(Nc2ccc3c(c2)C(C)(C)CCC(=O)N3)ncc1Cl` [Example 381, 2-[5-Chloro-2-(5,5-dimethyl-2-oxo-2,3,4,5-tetrahydro-1H-benzo[b]azepin-7-ylamino)-pyrimidin-4-ylamino]-N-methyl-benzamide], the pIC50 was over 7.00.

Same assay, conditions: ALK kinase inhibition, 1 μM ATP; read-out: ALK Activity
Compound `COCCOc1cccc(F)c1Nc1nc(Nc2ccc3c(c2)CCN(CCOC)CC3)ncc1Cl` [Example 1696, 5-Chloro-N*4*-[2-fluoro-6-(2-methoxy-ethoxy)-phenyl]-N*2*-[3-(2-methoxy-ethyl)-2,3,4,5-tetrahydro-1H-benzo[d]azepin-7-yl]-pyrimidine-2,4-diamine] has a pIC50 of over 7.00. `CNC(=O)c1cccc(F)c1Nc1nc(Nc2ccc3c(c2)N(C(C)C)C(=O)CCC3(C)C)ncc1Cl` [Example 1588, 2-[5-Chloro-2-(1-isopropyl-5,5-dimethyl-2-oxo-2,3,4,5-tetrahydro-1H-benzo[b]azepin-8-ylamino)-pyrimidin-4-ylamino]-3-fluoro-N-methyl-benzamide] was tested, and the pIC50 was over 7.00. With `CNC(=O)c1cccc(F)c1Nc1nc(Nc2ccc3c(c2)OCCCN3)ncc1Cl` [Example 1723, 2-[5-Chloro-2-(6,7,8,9-tetrahydro-5-oxa-9-aza-benzocyclohepten-3-ylamino)-pyrimidin-4-ylamino]-3-fluoro-N-methyl-benzamide] the pIC50 was 6.00 to 7.00. `CNC(=O)c1cccc(F)c1Nc1nc(Nc2ccc3c(c2)N(C(C)=O)CCCO3)ncc1Cl` [Example 1701, 2-[2-(9-Acetyl-6,7,8,9-tetrahydro-5-oxa-9-aza-benzocyclohepten-2-ylamino)-5-chloro-pyrimidin-4-ylamino]-3-fluoro-N-methyl-benzamide] was tested, and the pIC50 was 6.00 to 7.00.
